Consider one compound from article PMC5225172 (Cancer Chemotherapy and Pharmacology, 2016).

One data set can be described thus: clinical. The following applies: human, in vivo. On the procedure: Additional PK samples were collected at either 72, 96, or 120 h following the start of infusion. […] Blood pressure monitoring was performed every 5 min before dosing on cycle 1, day 1 until the observation of two consecutive measurements <150 mmHg (systolic) and <90 mmHg (diastolic). […] Serum samples for glucose analysis were collected immediately before the first infusion and in parallel with PK sampling through to 49 h post-dose. Glucose samples taken at 25 h post-dose were to be fasting, where possible and if deemed safe. Capillary blood glucose testing was to be performed for hyperglycemia management as determined appropriate by the investigator; hyperglycemia was defined as capillary blood glucose >200 mg/dL and was to be treated with short-acting insulin. Tumor measurement and disease assessment according to RECIST version 1.1 were conducted every two cycles by the investigator. This study was primarily a descriptive safety and tolerability trial, and no formal sample-size estimation was performed. Summary statistics were used for demographics, baseline characteristics, and PK parameters. Frequency tables were used for categorical variables.

In data set [1] the test system is patients with advanced solid tumors and non-Hodgkin's lymphomas. As to conditions: cited from earlier work.
The test system of a further data set is class I PI3K. The following applies: compared with the p110β and p110γ isoforms; cited from earlier work.

Take `COc1c(OCCCN2CCOCC2)ccc2c1N=C(NC(=O)c1cnc(N)nc1)N1CCN=C21` [copanlisib, Copanlisib]: the half-life in the data set “clinical” (0.4 mg/kg, Geometric mean terminal half-life) was ~32 h; in the data set “clinical” (0.8 mg/kg, Geometric mean terminal half-life) it was ~36 h; in the data set “clinical” (0.8 mg/kg, Plasma half-life) it was 32 to 36 h; in “clinical” (iv, 0.4 mg/kg, t 1/2 (half-life associated with terminal slope)), 32.2 h; in “clinical” (iv, 0.8 mg/kg, t1/2 (half-life associated with terminal slope)), 35.6 h. The AUC (commonly the area under the concentration-time curve, a measure of exposure) in “clinical” (iv, 0.4 mg/kg) worked out at 1400 ng·h/mL; in the data set “clinical” (iv, 0.8 mg/kg) it was 2350 ng·h/mL. For the same compound, the AUC(0-t) (in general, exposure summed from dosing to a finite time, without extrapolation to infinity) in the data set “clinical” (iv, 0.4 mg/kg, AUC(0–8)) stood at 483 ng·h/mL; in “clinical” (iv, 0.4 mg/kg, AUC(0–25)) it was 789 ng·h/mL; in the data set “clinical” (iv, 0.8 mg/kg, AUC(0–8)), 812 ng·h/mL; in “clinical” (iv, 0.8 mg/kg, AUC(0–25)), 1280 ng·h/mL. The highest level in the data set “clinical” (iv, 0.4 mg/kg, C max) (Cmax) was 215 ng/mL. Moreover, the Tmax in the data set “clinical” (iv, 0.4 mg/kg, tmax) is 1.02 h; in the data set “clinical” (iv, 0.8 mg/kg), 0.75 [0.48-1.05] h; in the data set “clinical” (iv, 0.8 mg/kg, tmax) it was 0.53 h. Moreover, in the data set “clinical” (iv, 0.8 mg/kg), the “AUC(0–25)” value was 1290 (10.1) µg·h/L. Further, in data set [1] (Patnaik et al. study), the “Grade 3 hypertension” value was 19%. Besides, the “Incidence of all-grade hypertension” value in data set [1] (Patnaik et al. study) is 30%. In data set [1] (first-in-human Phase I study, non-Japanese patients, once weekly), the “Maximum tolerated dose (MTD)” value was 0.8 mg/kg. In addition, in data set [1] (first-in-human study), the “Patients with grade ≥3 elevated aminotransferase levels” value is recorded as < 10%. Moreover, the “Time of hyperglycemia peak after the start of infusion” value in data set [1] (first-in-human study) is 5 to 8 h. Also, in data set [1] (first-in-human study), the “Time of hypertension peak after the start of infusion” value is 1 to 2 h. In the data set with class I PI3K, the PI3K isoform preference entry is “preferential activity against the p110α and p110δ isoforms of PI3K”.
